Test results published in patent US4268630A, “Microbiological production of ketones from C3 -C6 alkanes” (priority 1979, dated 1981).

Key:
[1] = test system: Methylobacterium organophilum XX (ATCC 27886); experiment: Oxidation of sec-alcohols to ketones by resting cell suspension; type: cell-based
Procedure: (§1) The pH of the nutrient medium was adjusted to 7.0 by the addition of acid or base and 50 ml. samples of the nutrient medium were charged into a plurality of 300 ml. shaker flasks. The shaker flasks were inoculated with an inoculating loop of cells from an agar plate containing homogeneous colonies of the microorganisms on the plate (the purity of the isolates was confirmed by microscopic examination). The isolates had been maintained on methanol (0.4% V/V) agar plates or on agar plates under an atmosphere of methane and air having a 1:1 V/V gas ratio which had been transferred every two weeks. For growth on methanol, the medium was supplemented with 0.4% methanol. For growth on methane, the gaseous phase of the inoculated flasks was replaced with a gas mixture comprised on methane and air having a ratio of 1:1 on a V/V basis. The inoculated flasks were sealed air-tight and were incubated on a rotary shaker of orbital radius 2.5 cm. at 250 rpm and at 30° C. for two days until turbidity in the medium had developed. The cells were harvested by centrifugation at 10,000×g. at 4° C. for 30 minutes. The cell pellet was washed twice with a 0.05 M phosphate buffer at a pH of 7.0 (containing 0.02 M MgCl2). The washed cells were then suspended in a 0.05 M phosphate buffer at pH 7.0.
(§2) A 0.5 ml. sample of each washed cell suspension (2 mg. cells) was put into 10 ml. vials at 4° C. which were sealed with a rubber cap. The gaseous phase of the vials was removed with vacuum and then was replaced with a gas mixture of the substrate reactant (i.e., alkane or secondary alcohol) and oxygen at a 1:1 V/V ratio. (In the case of a liquid substrate, i.e., secondary alcohol, 10 μl of the substrate was put in the 10 ml. vials). […] Samples of product (1-3 μl) were withdrawn periodically with a microsyringe and the products were analyzed by gas chromatography (ionization flame detector column).
(§3) The procedure in Example 1 was repeated wherein a plurality of the methane-utilizing methylotrophic microorganisms were each grown aerobically in a nutrient medium containing methane as the alcohol dehydrogenase enzyme inducer and as the major carbon and energy source for growth. The cells were harvested and washed as described in Example 1. The resting microbial cells of the induced methane-grown methane-utilizing methylotrophic microorganisms were then contacted with C3 -C6 secondary alcohols in a buffered solution by the procedure of Example 1.
(§4) In this example, the procedure in Example 1 was repeated except that a plurality of methane-utilizing methylotrophic microorganisms were each aerobically grown in a methanol-containing nutrient medium instead of a methane-containing medium. The nutrients in the medium were the same as indicated in Example 1 except that 0.4% V/V methanol was used as the alcohol dehydrogenase inducer and major source of carbon and energy for growth. Following growth, the cells were harvested and washed as described in Example 1. The resting cells of the induced methanol-grown methylotrophic microorganisms were then contacted with secondary alcohols in a buffered solution by the procedure described in Example 1.
(§5) The procedure in Example 1 was repeated except that the methylotrophic microorganisms were each aerobically grown in an alcohol dehydrogenase-inducing growth medium containing methylamine or methyl formate as the alcohol dehydrogenase enzyme inducer and growth substrate instead of methane. The nutrients in the medium were the same as indicated in Example 1 except that 0.4% V/V of the alcohol dehydrogenase-inducer growth substrate was used as the major carbon and energy source. The cells were harvested and washed as described in Example 1. The resting microbial cells were then contacted with C3 -C6 secondary alcohols in a buffered solution by the conversion procedure of Example 1.

[2] = test system: Methylosinus trichosporium OB3b (NRRL B-11,196); experiment: as above; type: cell-based
Procedure: as §1, §2, §3, §4, §5

[3] = test system: cell-free soluble extract of Methylobacterium organophilum CRL 26 (NRRL B-11,222); experiment: Oxidation of secondary alcohols by cell-free soluble extract (NAD added); type: biochemical; settings: soluble crude extract, grown on methanol
Procedure: (§6) To prepare the cell-free secondary alcohol dehydrogenase (SADH) system, the washed cells were disrupted with a Wave Energy Ultrasonic Oscillator, Model W201 (Wave Energy System, Inc., Newtown, Pa.) and centrifuged at 20,000× g. for 30 minutes. […] The enzyme activity was measured with a fluorescence spectrophotometer (Perkin Elmer, Model MPF 44A) by following the formation of reduced NAD (EX 340 nm, Em 460 nm). The formation of reduced NAD was also followed with an absorption spectrophotometer at 340 nm. The assay system (3 ml.) contained: potassium phosphate buffer pH 7.0; 150 μmol.; NAD 1 μmol.; a given amount of enzyme preparation; and secondary alcohol 10 μmol. The reaction was started by the addition of substrate. One unit of enzyme activity represents the reduction of one μmole NAD per minute. Protein concentrations were determined by the Lowry method (J. Biol. Chem., 193: 255-275 (1951)).
(§7) The experimental procedure for the tests reported in Table VIII were as follows: 1 mg protein of crude extract was added into a 0.5 ml. 0.05 M phosphate buffer (pH 7.0) in a 10-ml. vial. […] The reaction mixture was incubated at 30° C. on a water bath. A 3 μl sample was removed with a syringe at 15 min. of incubation and was assayed with g.l.c. Catalytic activity was also assayed by fluorescence spectrophotometry.

[4] = test system: cell-free soluble extract of Methylosinus trichosporium OB3b (NRRL B-11,196); experiment: as above; type: biochemical; settings: soluble crude extract, grown on methanol
Procedure: as §6, §7

[5] = test system: cell-free soluble extract of Pseudomonas sp. CRL 75 (ATCC 21,439); experiment: as above; type: biochemical; settings: soluble crude extract, grown on methanol
Procedure: as §6, §7

Row | Compound | Conversion Rates, sec-alcohol to methyl ketone ([1]; cells grown on methanol) | Conversion Rates, sec-alcohol to methyl ketone ([1]; methyl formate-grown) | Conversion Rates, sec-alcohol to methyl ketone ([1]; resting cells grown on methane) | Conversion Rates, sec-alcohol to methyl ketone ([2]; cells grown on methanol) | Conversion Rates, sec-alcohol to methyl ketone ([2]; methyl formate-grown) | Conversion Rates, sec-alcohol to methyl ketone ([2]; resting cells grown on methane) | Oxidation Rate, sec-alcohol to methyl ketone [3] | Oxidation Rate, sec-alcohol to methyl ketone [4] | Oxidation Rate, sec-alcohol to methyl ketone [5]
1 | CCC(C)O (stereo not drawn) [2-Butanol, 2-butanol] | 2.8 μmoles/hr/mg protein | 3.5 μmoles/hr/mg protein | 2.5 μmoles/hr/mg protein | 4.1 μmoles/hr/mg protein | 4.5 μmoles/hr/mg protein | 3.7 μmoles/hr/mg protein | 2.5 nmole/min/mg protein | 2.4 nmole/min/mg protein | 25.0 nmole/min/mg protein
2 | CC(C)O [2-Propanol, 2-propanol] | 0.70 μmoles/hr/mg protein | 0.48 μmoles/hr/mg protein | 0.5 μmoles/hr/mg protein | 0.30 μmoles/hr/mg protein | 0.95 μmoles/hr/mg protein | 0.25 μmoles/hr/mg protein | 2.1 nmole/min/mg protein | 2.0 nmole/min/mg protein | 21.2 nmole/min/mg protein
3 | CCCCC(C)O (stereo not drawn) [2-Hexanol, 2-hexanol] | 1.1 μmoles/hr/mg protein | 0.70 μmoles/hr/mg protein | 0.12 μmoles/hr/mg protein | 0.9 μmoles/hr/mg protein | 0.72 μmoles/hr/mg protein | 0.07 μmoles/hr/mg protein | 0 nmole/min/mg protein | 0 nmole/min/mg protein | 0 nmole/min/mg protein
4 | CCCC(C)O (stereo not drawn) [2-Pentanol, 2-pentanol] | 0.9 μmoles/hr/mg protein | 1.0 μmoles/hr/mg protein | 0.82 μmoles/hr/mg protein | 2.9 μmoles/hr/mg protein | 1.5 μmoles/hr/mg protein | 2.7 μmoles/hr/mg protein | 0.1 nmole/min/mg protein | 0.1 nmole/min/mg protein | 1.2 nmole/min/mg protein
